How the values were obtained:
[1] = biological target: CRBN/DDB1 protein complex (Homo sapiens, UniProt Q96SW2); assay: CRBN displacement TR-FRET assay; settings: Thalidomide-Red tracer, 6×His-CRBN/DDB1; read-out: CRBN binding Ki
Procedure: CRBN/DDB1 protein complex was mixed with Thalidomide-Red and a compound to be tested (the “test compound”). The test solution contained PPI Europium detection buffer, 1 mM DTT, 6.8 nM Thalidomide-Red (the tracer), 5 nM 6×His-CRBN/DDB1 protein, 0.5 nM Anti-6× His-Eu cryptate, 1% DMSO. The test solution was added to a 384-well assay plate.
The plate was spun-down (1 min, 1000 rpm, 22° C.) and then shaken using a VibroTurbulator for 30 sec at room temperature (20-25° C.), with the frequency set to level 10. The assay plate with protein and the tracer was incubated for 180 min at room temperature (20-25° C.) prior to read-out with a plate reader. The read-out was performed with plate reader (Pherastar, BMG Labtech) in time resolved fluorescence mode. Filter settings: TR 337 665 620.
The CRBN displacement TR-FRET experiment was carried out with various concentrations of the test compounds in order to measure Ki values.
The Ki values of competitive inhibitors were calculated using the equation based on the IC50 values of relationship between compound concentration and measured […], the Kd value of the Thalidomide-Red and CRBN/DDB1 complex, and the concentrations of the protein and the tracer in the displacement assay (as described by Cheng and Prusoff, Biochem Pharmacol 1973; 22:3099-3108).

[2] = biological target: [CK1α]-[compound]-[CRBN/DDB1] ternary complex (Homo sapiens, UniProt P48729+Q96SW2); assay: AlphaLISA assay for off-target recruitment detection, CK1α; type: binding; settings: 1 μM compound; normalized to FPFT-2216; read-out: Normalized ternary complex response, CK1α
Procedure: The ability of the molecular glue compounds of the invention to mediate the proximity of CRBN with its known neo-substrates (shown in Table 3) was assessed using AlphaLISA to detect the formation of a [neo-substrate]-[compound of formula (I)]-[CRBN/DDB1] ternary complex.
Two types of protein solution were prepared: • neo-substrate, 40 μg/ml AlphaScreen Donor Beads (Table 3) in PBS (10 mM phosphate buffer, 137 mM NaCL, 2.7 mM KCl, pH 7.4) buffer supplemented with Tween-20 (Table 3) and 1 mM DTT, • 200 nM 6×His-CRBN/DDB1, 40 μg/ml AlphaLISA Anti-6×His Acceptor beads in PBS buffer with Tween-20 (Table 3) and 1 mM DTT.
The prepared solutions were incubated at room temperature for 30 min and then the solution containing the donor beads was mixed with the solution containing the acceptor beads.
The tested compounds were dispensed onto a white 384-well AlphaPlate 384 SW. DMSO was backfilled to all wells, resulting in a final DMSO content of 2%. Wells containing only DMSO served as background. Next, 10 μl of solution with donor and acceptor beads was added to the wells.
The plate was sealed with transparent film and shaken using a VibroTurbulator for 60 sec at room temperature, level 3. The plate was then spun down shortly (10 sec, 1000 rcf, room temperature) and incubated at 25° C. for 30 min.
The read-out was performed with PerkinElmer Enspire Multimode Plate Reader (method for AlphaLISA 384-well low volume, Filterset: λexc=680 nm, λem=615 nm).
The results were analyzed as follows: • 1) an average of luminescence for background signal was calculated and used as a negative control; • 2) an average of the maximum measured luminescence for reference compound (Table 3) was calculated and used as an internal positive control; • 3) raw luminescence values were normalized against positive and negative controls; • 4) Normalized responses to reference molecular glue were determined.

[3] = biological target: T1, GSPT1-HiBiT protein in GSPT1-HiBiT HEK293 cells (Homo sapiens, UniProt P15170+Q96SW2); assay: GSPT1 degradation assay using HiBiT system (Nano-Glo HiBiT lytic assay); type: cell-based; settings: 6 hours treatment; for DC50: read-out: HiBiT lytic assay Geomean absolute DC50
T1 construct: endogenous in cells; host or cells: HEK293 (CRISPR/Cas9 knock-in of HiBiT at the GSPT1 locus)
Text: The effect of selected compounds of the invention on GSPT1 protein levels was investigated, using the GSPT1-HiBiT HEK293 cell line and the Nano-Glo HiBiT degradation assay protocol below.
GSPT1-HiBiT HEK293 cells were generated in-house using the HEK293 parental cells (ATCC, cat. no 70016364) and the CRISPR/Cas9 system. HEK293 cells were transformed with pSpCas9-BB-2A-Puro v2.0 plasmid carrying gRNA targeting the C-terminus of GSPT1 and ssODN template containing the HiBiT tag sequence with flanking homology sequences. Neon Transfection System (Thermo Fisher Scientific) was used for electroporation. HEK293 GSPT1-HiBiT cells were cultured with DMEM Glutamax (Gibco) supplemented with 10% heat inactivated FBS (Gibco). After transfection the culture medium was changed to DMEM Glutamax with 10% heat-inactivated FBS and 1% Penicillin-Streptomycin (Biowest) supplemented with Puromycin (2 μg/ml; Invivogen) for clonal selection. In order to isolate single cell clones for further validation and analysis, limiting dilution cloning in 96-well plates was performed. When the single clones reached confluency, HiBiT Lytic Assay (Promega) was performed in order to identify HiBiT positive clones. The clone selected for further studies was verified and validated using genotyping and HiBiT Blotting (Promega).
Cells were maintained in DMEM Glutamax medium, supplemented with 1% penicillin/streptomycin and 10% Fetal Bovine Serum (FBS) at 37° C., 5% CO2. Compounds were stored frozen as 20 mM DMSO stocks.
For the Nano-Glo HiBiT assay, cells were seeded onto 384-well white solid bottom plate at 2×10^3 cells/well in 40 μL using the Agilent BioTek MultiFlo FX Multimode Dispenser and incubated overnight. Following overnight incubation (37° C., 5% CO2) cells were treated with the test compounds and vehicle only (DMSO) control using the Echo 555 Liquid Handler. Twelve data-point compound titration curve with concentrations ranging from 10 μM to 0.03 nM was used. Final DMSO concentration was kept constant at 0.25% v/v across the assay plate. After 6 hours of incubation (37° C., 5% CO2), plates were removed from the incubator and let to equilibrate to RT. Luminescent signal detection was conducted using the Nano-Glo HiBiT Lytic Detection System (Promega, cat. nr N3050). Nano-Glo HiBiT Lytic Reagent was prepared freshly by diluting the LgBiT Protein (1:100 vol/vol) and the Nano-Glo HiBiT Lytic Substrate (1:50 vol/vol) in the relevant volume of the Nano-Glo HiBiT Lytic Buffer. 40 μL of the HiBiT Lytic Reagent was added per well, plates were shaken to facilitate lysis (350 rpm, 5 min, RT) and incubated in the dark for the following 10 min. Luminescence was read using the PHERAstar multimode plate reader (BMG LABTECH). The raw data (the relative luminescence unit values, RLU) were uploaded under the relevant protocol and analysed in CDDVault data management platform. Luminescence (RLU) values were normalized to the controls, and reported absolute DC50 values and Dmax values were calculated in CDDVault using non-linear regression and appropriate equations.

[CK1α]-[compound]-[CRBN/DDB1] ternary complex, sequence (P48729 whole entry): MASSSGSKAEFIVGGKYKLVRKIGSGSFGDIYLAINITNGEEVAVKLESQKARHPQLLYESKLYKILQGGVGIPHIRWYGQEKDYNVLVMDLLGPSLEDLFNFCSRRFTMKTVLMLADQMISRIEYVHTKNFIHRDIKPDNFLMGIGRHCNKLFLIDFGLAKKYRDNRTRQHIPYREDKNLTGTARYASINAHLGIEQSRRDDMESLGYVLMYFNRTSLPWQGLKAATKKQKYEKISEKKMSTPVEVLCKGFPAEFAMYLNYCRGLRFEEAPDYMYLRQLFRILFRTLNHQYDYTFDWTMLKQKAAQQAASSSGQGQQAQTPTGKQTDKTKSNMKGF
[CK1α]-[compound]-[CRBN/DDB1] ternary complex, sequence (Q96SW2 whole entry): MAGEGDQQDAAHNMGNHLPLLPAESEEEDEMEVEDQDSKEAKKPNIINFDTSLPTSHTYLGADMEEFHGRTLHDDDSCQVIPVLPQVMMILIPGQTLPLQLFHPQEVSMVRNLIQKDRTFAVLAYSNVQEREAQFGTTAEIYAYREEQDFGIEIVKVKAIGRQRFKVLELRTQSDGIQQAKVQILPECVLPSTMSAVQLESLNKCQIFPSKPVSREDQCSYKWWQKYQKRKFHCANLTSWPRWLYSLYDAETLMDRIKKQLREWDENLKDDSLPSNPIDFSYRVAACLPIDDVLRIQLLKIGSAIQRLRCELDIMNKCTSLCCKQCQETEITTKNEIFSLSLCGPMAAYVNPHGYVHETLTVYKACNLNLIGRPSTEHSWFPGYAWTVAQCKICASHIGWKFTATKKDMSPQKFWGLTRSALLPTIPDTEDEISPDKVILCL
[CK1α]-[compound]-[CRBN/DDB1] ternary complex, sequence (Q16531 whole entry partner): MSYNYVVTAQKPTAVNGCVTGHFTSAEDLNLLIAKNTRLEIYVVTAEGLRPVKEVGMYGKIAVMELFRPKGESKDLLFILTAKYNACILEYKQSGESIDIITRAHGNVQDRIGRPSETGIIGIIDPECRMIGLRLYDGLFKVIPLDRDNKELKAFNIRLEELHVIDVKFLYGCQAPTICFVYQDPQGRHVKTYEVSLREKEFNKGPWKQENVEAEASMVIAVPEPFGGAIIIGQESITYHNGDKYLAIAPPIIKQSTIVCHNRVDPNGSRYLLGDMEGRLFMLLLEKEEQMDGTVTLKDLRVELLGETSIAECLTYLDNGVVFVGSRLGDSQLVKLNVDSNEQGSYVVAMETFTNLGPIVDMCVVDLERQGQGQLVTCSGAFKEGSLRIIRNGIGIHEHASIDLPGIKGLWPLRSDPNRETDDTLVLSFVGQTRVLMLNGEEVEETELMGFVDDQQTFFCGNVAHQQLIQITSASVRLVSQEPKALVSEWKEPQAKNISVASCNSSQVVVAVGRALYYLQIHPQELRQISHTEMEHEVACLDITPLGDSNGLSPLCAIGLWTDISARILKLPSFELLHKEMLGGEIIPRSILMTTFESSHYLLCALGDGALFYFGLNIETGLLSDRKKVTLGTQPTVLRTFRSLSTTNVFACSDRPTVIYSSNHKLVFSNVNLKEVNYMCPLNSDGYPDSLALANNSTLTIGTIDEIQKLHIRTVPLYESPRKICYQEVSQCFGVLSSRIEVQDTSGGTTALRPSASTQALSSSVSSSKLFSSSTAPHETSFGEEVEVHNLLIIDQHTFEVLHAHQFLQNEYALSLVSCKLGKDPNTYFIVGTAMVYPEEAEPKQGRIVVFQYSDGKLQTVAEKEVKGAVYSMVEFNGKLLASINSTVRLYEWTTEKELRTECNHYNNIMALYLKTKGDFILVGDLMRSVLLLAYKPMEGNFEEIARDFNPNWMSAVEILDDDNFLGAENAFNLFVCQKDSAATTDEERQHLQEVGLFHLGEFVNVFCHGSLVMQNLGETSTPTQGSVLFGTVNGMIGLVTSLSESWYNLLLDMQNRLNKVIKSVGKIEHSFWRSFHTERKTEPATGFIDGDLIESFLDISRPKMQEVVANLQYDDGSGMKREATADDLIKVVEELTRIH
T1 sequence (P15170 whole entry): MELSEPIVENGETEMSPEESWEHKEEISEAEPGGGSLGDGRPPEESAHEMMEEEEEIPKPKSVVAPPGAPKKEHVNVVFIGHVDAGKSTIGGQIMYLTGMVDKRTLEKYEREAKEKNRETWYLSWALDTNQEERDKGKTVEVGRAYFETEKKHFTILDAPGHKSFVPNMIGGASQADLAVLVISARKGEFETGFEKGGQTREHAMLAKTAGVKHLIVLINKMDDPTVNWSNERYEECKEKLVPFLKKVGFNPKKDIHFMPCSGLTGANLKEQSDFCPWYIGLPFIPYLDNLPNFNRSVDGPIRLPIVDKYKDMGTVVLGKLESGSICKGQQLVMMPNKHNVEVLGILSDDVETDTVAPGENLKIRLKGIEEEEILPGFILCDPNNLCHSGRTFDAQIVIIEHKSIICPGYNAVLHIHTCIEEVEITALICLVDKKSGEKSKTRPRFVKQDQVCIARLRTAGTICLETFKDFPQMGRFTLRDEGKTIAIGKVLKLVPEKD
T1 sequence (Q96SW2 whole entry): as the sequence (Q96SW2 whole entry) above
T1 sequence (Q16531 whole entry partner): as the sequence (Q16531 whole entry partner) above
CRBN/DDB1 protein complex, sequence (Q96SW2 whole entry, species assumed): as the sequence (Q96SW2 whole entry) above
CRBN/DDB1 protein complex, sequence (Q16531 whole entry partner, species assumed): as the sequence (Q16531 whole entry partner) above

| Compound | Ki [1] [nM] | activation at 1 µM [2] [%] | Dmax [3] [%] | DC50 [3] [nM] |
| --- | --- | --- | --- | --- |
| Cc1ccc(NC(=O)OCc2ccc3cc([C@H]4CCC(=O)NC4=O)c(C)nc3c2)cc1Cl [Compound 39, (3-(2,6-dioxopiperidin-3-yl)-2-methylquinolin-7-yl)methyl (3-chloro-4-methylphenyl)carbamate] | 500 to 1000 | < 10 | ≥ 75 | < 10 |
| Cc1nc2cc(COC(=O)NC3CCC(C(C)(C)C)CC3)ccc2cc1C1CCC(=O)NC1=O (centres unmarked) [Compound 55, (3-(2,6-dioxopiperidin-3-yl)-2-methylquinolin-7-yl)methyl (4-(tert-butyl)cyclohexyl)carbamate] | 500 to 1000 | < 10 | ≥ 75 | 10 to 50 |
| Cc1nc2cc(COC(=O)Nc3cc(Cl)c(C)c(CN4CCOCC4)c3)ccc2cc1C1CCC(=O)NC1=O (centres unmarked) [Compound 17, (3-(2,6-dioxopiperidin-3-yl)-2-methylquinolin-7-yl)methyl (3-chloro-4-methyl-5-(morpholinomethyl)phenyl)carbamate] | < 500 | < 10 | ≥ 75 | < 10 |
| Cc1nc2cc(COC(=O)Nc3ccc(C(F)(F)F)c(Cl)c3)ccc2cc1C1CCC(=O)NC1=O (centres unmarked) [Compound 18, (3-(2,6-dioxopiperidin-3-yl)-2-methylquinolin-7-yl)methyl (3-chloro-4-(trifluoromethyl)phenyl)carbamate] | 500 to 1000 | < 10 | ≥ 75 | 10 to 50 |
| Cc1ccc(NC(=O)OCc2cc(F)c3cc(C4CCC(=O)NC4=O)c(C)nc3c2)cc1Cl (centres unmarked) [Compound 22, (3-(2,6-dioxopiperidin-3-yl)-5-fluoro-2-methylquinolin-7-yl)methyl (3-chloro-4-methylphenyl)carbamate] | > 1000 | < 10 | ≥ 75 | 10 to 50 |
| Cc1nc2cc(COC(=O)Nc3cc(C4(C(F)(F)F)CC4)no3)ccc2cc1C1CCC(=O)NC1=O (centres unmarked) [Compound 81, (3-(2,6-dioxopiperidin-3-yl)-2-methylquinolin-7-yl)methyl (3-(1-(trifluoromethyl)cyclopropyl)isoxazol-5-yl)carbamate] | < 500 | < 10 | ≥ 75 | < 10 |
| [2H]C([2H])(OC(=O)Nc1cc(C(C)(C)C)no1)c1ccc2cc(C3CCC(=O)NC3=O)c(C)nc2c1 (centres unmarked) [Compound 82, (3-(2,6-dioxopiperidin-3-yl)-2-methylquinolin-7-yl)methyl-d2 (3-(tert-butyl)isoxazol-5-yl)carbamate] | < 500 | < 10 | ≥ 75 | < 10 |
| Cc1nc2cc(COC(=O)Nc3csc(-c4ccccc4)c3)ccc2cc1C1CCC(=O)NC1=O (centres unmarked) [Compound 37, (3-(2,6-dioxopiperidin-3-yl)-2-methylquinolin-7-yl)methyl (5-phenylthiophen-3-yl)carbamate] | 500 to 1000 | < 10 | ≥ 75 | 10 to 50 |
| Cc1ccc(NC(=O)CCc2ccc3cc(C4CCC(=O)NC4=O)c(C)nc3c2)cc1Cl (centres unmarked) [Compound 32, N-(3-chloro-4-methylphenyl)-3-(3-(2,6-dioxopiperidin-3-yl)-2-methylquinolin-7-yl)propanamide] | 500 to 1000 | < 10 | ≥ 75 | 10 to 50 |
| Cc1nc2cc(COC(=O)Nc3ccc(C(C)(C)C)cc3)ccc2cc1C1CCC(=O)NC1=O (centres unmarked) [Compound 8, (3-(2,6-dioxopiperidin-3-yl)-2-methylquinolin-7-yl)methyl (4-(tert-butyl)phenyl)carbamate] | < 500 | < 10 | ≥ 75 | < 10 |
| Cc1nc2cc(COC(=O)Nc3ccc(Cl)c(Cl)c3)ccc2cc1C1CCC(=O)NC1=O (centres unmarked) [Compound 12, (3-(2,6-dioxopiperidin-3-yl)-2-methylquinolin-7-yl)methyl (3,4-dichlorophenyl)carbamate] | > 1000 | < 10 | ≥ 75 | 10 to 50 |
| Cc1ccc(NC(=O)OCc2ccc3cc(C4CCC(=O)NC4=O)c(C)nc3c2)cc1Cl (centres unmarked) [Compound 4, (3-(2,6-dioxopiperidin-3-yl)-2-methylquinolin-7-yl)methyl (3-chloro-4-methylphenyl)carbamate] | 500 to 1000 | < 10 | ≥ 75 | 10 to 50 |
| Cc1ccc(NC(=O)NCc2ccc3cc(N4CCC(=O)NC4=O)c(C)nc3c2)cc1Cl [Compound 27, 1-(3-chloro-4-methylphenyl)-3-((3-(2,4-dioxotetrahydropyrimidin-1(2H)-yl)-2-methylquinolin-7-yl)methyl)urea] | < 500 | < 10 | ≥ 75 | 50 to 100 |
| Cc1ccc(NC(=O)OCc2ccc3nc(C)c(C4CCC(=O)NC4=O)cc3c2)cc1Cl (centres unmarked) [Compound 5, (3-(2,6-dioxopiperidin-3-yl)-2-methylquinolin-6-yl)methyl (3-chloro-4-methylphenyl)carbamate] | < 500 | < 10 | – | – |
| Cc1ccc(NC(=S)NCc2ccc3cc(C4CCC(=O)NC4=O)c(C)nc3c2)cc1Cl (centres unmarked) [Compound 2, 1-(3-chloro-4-methylphenyl)-3-((3-(2,6-dioxopiperidin-3-yl)-2-methylquinolin-7-yl)methyl)thiourea] | 500 to 1000 | < 10 | – | – |
